The values below come from patent US20090036448A1, “PYRIMIDINE DERIVATIVES AND METHODS OF TREATMENT RELATED TO THE USE THEREOF” (TAISHO PHARMECUTICAL CO., LTD., priority 2004, published 2009).

The assay deals with MCH receptor (Homo sapiens, UniProt Q99705). Kind of assay: Receptor binding assay with Radiolabelled MCH Ligand. On the set-up: expressed in transfected cells; host or cells: 293 cells (human kidney, ATCC), transient transfection; crude membranes. Particulars: class by percent of control at 10^-7 M or IC50. The source says: In addition to the methods described herein, another means for evaluating a test compound is by determining binding affinities to the MCH receptor. This type of assay generally requires a radiolabelled ligand to the MCH receptor. Absent the use of known ligands for the MCH receptor and radiolabels thereof, compounds of Formula (I) can be labelled with a radioisotope and used in an assay for evaluating the affinity of a test compound to the MCH receptor.
Chain of MCH receptor (Q99705 whole entry): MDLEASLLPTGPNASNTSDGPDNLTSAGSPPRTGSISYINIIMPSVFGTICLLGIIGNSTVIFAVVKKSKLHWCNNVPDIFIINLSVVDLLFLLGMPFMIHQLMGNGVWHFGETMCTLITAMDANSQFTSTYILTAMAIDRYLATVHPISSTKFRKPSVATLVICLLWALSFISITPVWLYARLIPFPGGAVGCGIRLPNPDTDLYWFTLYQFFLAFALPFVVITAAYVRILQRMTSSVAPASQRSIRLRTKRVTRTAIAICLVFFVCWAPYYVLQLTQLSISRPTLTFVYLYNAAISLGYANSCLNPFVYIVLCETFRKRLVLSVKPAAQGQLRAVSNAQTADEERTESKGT
A radiolabelled MCH compound of Formula (I) can be used in a screening assay to identify/evaluate compounds. In general terms, a newly synthesized or identified compound (i.e., test compound) can be evaluated for its ability to reduce binding of the “radiolabelled compound of Formula (I)” to the MCH receptor. Accordingly, the ability to compete with the “radio-labelled compound of Formula (I)” or Radiolabelled MCH Ligand for the binding to the MCH receptor directly correlates to its binding affinity of the test compound to the MCH receptor.
293 cells (human kidney, ATCC), transiently transfected with 10 μg human MCH receptor and 60 μl Lipofectamine (per 15-cm dish), are grown in the dish for 24 hours (75% confluency) with a media change and removed with 10 mL/dish of Hepes-EDTA buffer (20 mM Hepes+10 mM EDTA, pH 7.4). The cells are then centrifuged in a Beckman Coulter centrifuge for 20 minutes, 17,000 rpm (JA-25.50 rotor). Subsequently, the pellet is resuspended in 20 mM Hepes+1 mM EDTA, pH 7.4 and homogenized with a 50-mL Dounce homogenizer and again centrifuged. After removing the supernatant, the pellets can be stored at −80° C., until used in binding assay. When used in the assay, membranes are thawed on ice for 20 minutes and then 10 mL of incubation buffer (20 mM Hepes, 1 mM MgCl2, 100 mM NaCl, pH 7.4) added. The membranes are then vortexed to resuspend the crude membrane pellet and homogenized with a Brinkmann PT-3100 Polytron homogenizer for 15 seconds at setting 6. The concentration of membrane protein is determined using the BRL Bradford protein assay.
For total binding, a total volume of 50 ul of appropriately diluted membranes (diluted in assay buffer containing 50 mM Tris HCl (pH 7.4), 1 mM MgCl2, and 1 mM EDTA; 5-50 ug protein) is added to 96-well polyproylene microtiter plates followed by addition of 100 μl of assay buffer and 50 μl of Radiolabelled MCH Ligand. For nonspecific binding, 50 μl of assay buffer is added instead of 100 μl and an additional 50 μl of 10 uM cold MCH is added before 50 μl of Radiolabelled MCH Ligand is added. Plates are then incubated at room temperature for 60-120 minutes. The binding reaction is terminated by filtering assay plates through a Microplate Devices GF/C Unifilter filtration plate with a Brandell 96-well plate harvester followed by washing with cold 50 mM Tris HCl, pH 7.4 containing 0.9% NaCl. Then, the bottom of the filtration plate are sealed, 50 ul of Optiphase Supermix is added to each well, the top of the plates are sealed, and plates are counted in a Trilux MicroBeta scintillation counter. For compound competition studies, instead of adding 100 μl of assay buffer, 100 μl of appropriately diluted test compound is added to appropriate wells followed by addition of 50 μl of Radiolabelled MCH Ligand.
The test compounds are initially assayed at 1 and 0.1 μM and then at a range of concentrations chosen such that the middle dose would cause about 50% inhibition of a Radiolabelled MCH Ligand binding (i.e., IC50). Specific binding in the absence of test compound (BO) is the difference of total binding (BT) minus non-specific binding (NSB) and similarly specific binding (in the presence of test compound) (B) is the difference of displacement binding (BD) minus non-specific binding (NSB). IC50 is determined from an inhibition response curve, logit-log plot of % B/BO vs. concentration of test compound.
Ki is calculated by the Cheng and Prustoff transformation: […]
In the case of `Cc1nc(N[C@H]2CC[C@@H](NS(=O)(=O)c3ccc(-c4cc(C(F)(F)F)nn4C)s3)CC2)cc(N(C)C)n1` [compound 515], the class was 3 (Class 3: The value of percent of control at 10^−7 M was more than 60% or the value of IC50 was more than 200 nM.).

As for `Cc1nc(N[C@H]2CC[C@@H](NC(=O)c3ccc(S(C)(=O)=O)s3)CC2)cc(N(C)C)n1` [compound 346], the class was 3 (Class 3: The value of percent of control at 10^−7 M was more than 60% or the value of IC50 was more than 200 nM.).

`Cc1nc(N[C@H]2CC[C@@H](NCc3ccc(F)cc3C(F)(F)F)CC2)cc(N(C)C)n1` [compound 394]: the class was 3 (Class 3: The value of percent of control at 10^−7 M was more than 60% or the value of IC50 was more than 200 nM.).

As for `Cc1nc(N[C@H]2CC[C@@H](NC(=O)OC3C[C@H](C)CC[C@H]3C(C)C)CC2)cc(N(C)C)n1` (stereo partly shown) [compound 465], the class is given as 3 (Class 3: The value of percent of control at 10^−7 M was more than 60% or the value of IC50 was more than 200 nM.).

In the case of `Cc1nc(N[C@H]2CC[C@@H](NCc3ccc(N(C)C)cc3)CC2)cc(N(C)C)n1` [compound 368], the class is listed as 3 (Class 3: The value of percent of control at 10^−7 M was more than 60% or the value of IC50 was more than 200 nM.).

On to `Cc1nc(N[C@H]2CC[C@@H](NC(=O)C(C)c3ccc(-c4ccccc4)c(F)c3)CC2)cc(N(C)C)n1` (relative stereo) [compound 284], for which the class was 3 (Class 3: The value of percent of control at 10^−7 M was more than 60% or the value of IC50 was more than 200 nM.).

Consider `Cc1nc(N[C@H]2CC[C@@H](NC(=O)c3cc(C)n(Cc4cccs4)c3C)CC2)cc(N(C)C)n1` [compound 283], for which the class is listed as 3 (Class 3: The value of percent of control at 10^−7 M was more than 60% or the value of IC50 was more than 200 nM.).

On to `CCC(C)(C)c1ccc(S(=O)(=O)N[C@H]2CC[C@@H](Nc3cc(N(C)C)nc(C)n3)CC2)cc1` [compound 488], for which the class is listed as 3 (Class 3: The value of percent of control at 10^−7 M was more than 60% or the value of IC50 was more than 200 nM.).

For the compound `Cc1nc(N[C@H]2CC[C@@H](NC(=O)CC3CCCC3)CC2)cc(N(C)C)n1` [compound 257], the class is recorded as 3 (Class 3: The value of percent of control at 10^−7 M was more than 60% or the value of IC50 was more than 200 nM.).

Turning to `COc1ccc(Oc2ccc([N+](=O)[O-])cc2C(=O)N[C@H]2CC[C@@H](Nc3cc(N(C)C)nc(C)n3)CC2)cc1` [compound 230, N-(cis-4-{[6-(dimethylamino)-2-methylpyrimidin-4-yl]amino}cyclohexyl)-2-(4-methoxyphenoxy)-5-nitrobenzamide], the class is 2 (Class 2: The value of percent of control at 10^−7 M was from 40% to 60% or the value of IC50 was from 50 nM to 200 nM.).

For the compound `Cc1nc(N[C@H]2CC[C@@H](NS(=O)(=O)C(C)C)CC2)cc(N(C)C)n1` [compound 479], the class is given as 3 (Class 3: The value of percent of control at 10^−7 M was more than 60% or the value of IC50 was more than 200 nM.).

For the compound `Cc1nc(N[C@H]2CC[C@@H](NS(=O)(=O)Cc3ccc(Cl)c(Cl)c3)CC2)cc(N(C)C)n1` [compound 473], the class was 3 (Class 3: The value of percent of control at 10^−7 M was more than 60% or the value of IC50 was more than 200 nM.).

Consider `Cc1nc(N[C@H]2CC[C@@H](NS(=O)(=O)c3ccc(-c4ccccc4)cc3)CC2)cc(N(C)C)n1` [compound 489], for which the class was 3 (Class 3: The value of percent of control at 10^−7 M was more than 60% or the value of IC50 was more than 200 nM.).

In the case of `Cc1nc(N[C@H]2CC[C@@H](NC(=O)c3ccc(Oc4ccccc4)cc3)CC2)cc(N(C)C)n1` [compound 326], the class was 3 (Class 3: The value of percent of control at 10^−7 M was more than 60% or the value of IC50 was more than 200 nM.).

As to `Cc1nc(N[C@H]2CC[C@@H](NC(=O)c3cc(C(C)(C)C)nn3Cc3ccc(Cl)cc3Cl)CC2)cc(N(C)C)n1` [compound 270], the class is 3 (Class 3: The value of percent of control at 10^−7 M was more than 60% or the value of IC50 was more than 200 nM.).

Turning to `Cc1nc(N[C@H]2CC[C@@H](NS(=O)(=O)c3ccc(Cl)c4nonc34)CC2)cc(N(C)C)n1` [compound 521], the class is recorded as 3 (Class 3: The value of percent of control at 10^−7 M was more than 60% or the value of IC50 was more than 200 nM.).

As to `Cc1nc(N[C@H]2CC[C@@H](NC(=O)Cc3ccccc3Br)CC2)cc(N(C)C)n1` [compound 264], the class is reported as 3 (Class 3: The value of percent of control at 10^−7 M was more than 60% or the value of IC50 was more than 200 nM.).

Regarding `Cc1nc(N[C@H]2CC[C@@H](NC(=O)c3cccc4c3-c3ccccc3C4=O)CC2)cc(N(C)C)n1` [compound 247], the class was 3 (Class 3: The value of percent of control at 10^−7 M was more than 60% or the value of IC50 was more than 200 nM.).

For `Cc1nc(N[C@H]2CC[C@@H](NCc3ccc(SC(F)(F)F)cc3)CC2)cc(N(C)C)n1` [compound 405], the class was 3 (Class 3: The value of percent of control at 10^−7 M was more than 60% or the value of IC50 was more than 200 nM.).

For the compound `COc1cc(NC(=O)N[C@H]2CC[C@@H](Nc3cc(N(C)C)nc(C)n3)CC2)cc(OC)c1OC` [compound 425, N-(cis-4-{[6-(dimethylamino)-2-methylpyrimidin-4-yl]amino}cyclohexyl)-N′-(3,4,5-trimethoxyphenyl)urea], the class is 1 (Class 1: The value of percent of control at 10^−7 M was less than 40% or the value of IC50 was less than 50 nM.).

Consider `C=CCOC(=O)N[C@H]1CC[C@@H](Nc2cc(N(C)C)nc(C)n2)CC1` [compound 462], for which the class is reported as 3 (Class 3: The value of percent of control at 10^−7 M was more than 60% or the value of IC50 was more than 200 nM.).

For `Cc1nc(N[C@H]2CC[C@@H](NC(=O)CCCCc3cccs3)CC2)cc(N(C)C)n1` [compound 316], the class is listed as 3 (Class 3: The value of percent of control at 10^−7 M was more than 60% or the value of IC50 was more than 200 nM.).

As to `Cc1nc(N[C@H]2CC[C@@H](NS(=O)(=O)c3cccc(C(F)(F)F)c3)CC2)cc(N(C)C)n1` [compound 483], the class is 3 (Class 3: The value of percent of control at 10^−7 M was more than 60% or the value of IC50 was more than 200 nM.).

On to `Cc1nc(N[C@H]2CC[C@@H](NC(=O)c3ccccc3C(=O)c3cc(C(F)(F)F)cc(C(F)(F)F)c3)CC2)cc(N(C)C)n1` [compound 322], for which the class was 3 (Class 3: The value of percent of control at 10^−7 M was more than 60% or the value of IC50 was more than 200 nM.).

Take `CCOc1ccc(CN[C@H]2CC[C@@H](Nc3cc(N(C)C)nc(C)n3)CC2)cc1` [compound 371]: the class was 3 (Class 3: The value of percent of control at 10^−7 M was more than 60% or the value of IC50 was more than 200 nM.).

For `COc1cccc(S(=O)(=O)N[C@H]2CC[C@@H](Nc3cc(N(C)C)nc(C)n3)CC2)c1` [compound 493], the class is 3 (Class 3: The value of percent of control at 10^−7 M was more than 60% or the value of IC50 was more than 200 nM.).

With `Cc1cccc(NC(=O)c2ccccc2C(=O)N[C@H]2CC[C@@H](Nc3cc(N(C)C)nc(C)n3)CC2)c1` [compound 319], the class was 3 (Class 3: The value of percent of control at 10^−7 M was more than 60% or the value of IC50 was more than 200 nM.).

Consider `Cc1nc(N[C@H]2CC[C@@H](NCc3c(-c4c(F)cccc4Cl)noc3C)CC2)cc(N(C)C)n1` [compound 366], for which the class is 3 (Class 3: The value of percent of control at 10^−7 M was more than 60% or the value of IC50 was more than 200 nM.).
